# Results: ChEMBL document CHEMBL3351906, “Bioactive triterpenoid saponins and phenolic compounds against glioma cells” (Bioorg Med Chem Lett, 2014)
# What was measured:
# U-251 [1] = assay: Inhibition of cell proliferation of human U251 cells assessed as cell viability at 100 uM after 72 hrs by sulforhodamine B assay; assay type: functional; settings: U-251, 72 h, read-out: Activity
# U-251 [2] = assay: Inhibition of cell proliferation of human U251 cells assessed as cell viability after 72 hrs by sulforhodamine B assay; assay type: functional, cell-based; settings: U-251, 72 h
# C6 [3] = assay: Inhibition of cell proliferation of rat C6 cells assessed as cell viability after 72 hrs by sulforhodamine B assay; assay type: functional, cell-based; settings: C6, 72 h
# C6 [4] = assay: Inhibition of cell proliferation of rat C6 cells assessed as cell viability at 100 uM after 72 hrs by sulforhodamine B assay; assay type: functional; settings: C6, 72 h, read-out: Activity
Structure (SMILES),viability at 100 µM (U-251 [1]) [%],IC50 (U-251 [2]) [µM],IC50 (C6 [3]) [µM],viability at 100 µM (C6 [4]) [%]
C=C[C@@](C)(O)CC/C=C(\C)C(=O)O[C@H]1[C@H](OC[C@H]2O[C@@H](OC(=O)[C@]34CCC(C)(C)C[C@@H]3C3=CC[C@@H]5[C@@]6(C)CC[C@H](O[C@@H]7O[C@H](CO[C@@H]8OC[C@H](O)[C@H](O)[C@H]8O[C@@H]8OC[C@@H](O)[C@H](O)[C@H]8O)[C@@H](O)[C@H](O)[C@H]7O)C(C)(C)[C@@H]6CC[C@@]5(C)[C@]3(C)C[C@H]4O)[C@H](O[C@@H]3O[C@@H](C)[C@H](O[C@@H]4OC[C@@H](O)[C@H](O[C@@H]5OC[C@@H](O)[C@H](O)[C@H]5O)[C@H]4O)[C@@H](O)[C@H]3O)[C@@H](O)[C@@H]2O)O[C@@H](C)[C@H](O)[C@H]1OC(=O)/C(=C/CC[C@](C)(O)C=C)CO [GLEDITSIA SAPONIN C],34.9,46.8,17.6,
O=c1c(O)c(-c2ccc(O)c(O)c2)oc2cc(O)cc(O)c12 [QUERCETIN],62.9,77.8,18.4,
C/C=C(/C)C(=O)O[C@H]1[C@H](O)[C@]2(COC(C)=O)[C@H](O)C[C@]3(C)C(=CC[C@@H]4[C@@]5(C)CC[C@H](O[C@@H]6O[C@H](C(=O)O)[C@@H](O[C@@H]7O[C@H](CO)[C@@H](O)[C@H](O)[C@H]7O)[C@H](O)[C@H]6O[C@@H]6O[C@H](CO)[C@@H](O)[C@H](O)[C@H]6O)[C@](C)(CO)[C@@H]5CC[C@]43C)[C@@H]2CC1(C)C [ISOESCIN IB],29.7,68.9,77.8,
C=C[C@@](C)(O)CC/C=C(\CO)C(=O)OC[C@H]1O[C@@H](OC(=O)[C@]23CCC(C)(C)C[C@H]2C2=CC[C@@H]4[C@@]5(C)CC[C@H](O[C@@H]6O[C@H](CO[C@@H]7OC[C@H](O)[C@H](O)[C@H]7O[C@@H]7OC[C@@H](O)[C@H](O)[C@H]7O)[C@@H](O)[C@H](O)[C@H]6O)C(C)(C)[C@@H]5CC[C@@]4(C)[C@]2(C)C[C@H]3O)[C@H](O[C@@H]2O[C@@H](C)[C@H](O[C@@H]3OC[C@@H](O)[C@H](O[C@@H]4OC[C@@H](O)[C@H](O)[C@H]4O)[C@H]3O)[C@@H](O)[C@H]2O[C@@H]2O[C@H](CO)[C@H](O)[C@H](O)[C@H]2O)[C@@H](O)[C@@H]1O,28.6,19.2,18.1,
C/C=C(\C)C(=O)O[C@H]1[C@H](O)[C@]2(COC(C)=O)[C@H](O)C[C@]3(C)C(=CC[C@@H]4[C@@]5(C)CC[C@H](O[C@@H]6O[C@H](C(=O)O)[C@@H](O[C@@H]7O[C@H](CO)[C@@H](O)[C@H](O)[C@H]7O)[C@H](O)[C@H]6O[C@@H]6O[C@H](CO)[C@@H](O)[C@H](O)[C@H]6O)[C@](C)(CO)[C@@H]5CC[C@]43C)[C@@H]2CC1(C)C [ISOESCIN IA],61.1,80.4,54.5,
O=C(CCc1ccc(O)c(O)c1)OCCc1ccc(O)c(O)c1,55,24.3,6.16,
CC(=O)Oc1cc(CCOC(=O)CCc2ccc(O)c(OC(C)=O)c2)ccc1O,39.8,26.8,8.47,
CC(C)=CCC[C@@](C)(O)[C@H]1CC[C@]2(C)[C@@H]1[C@H](O)C[C@@H]1[C@@]3(C)CC[C@H](O)C(C)(C)[C@@H]3[C@@H](O[C@@H]3O[C@H](CO)[C@@H](O)[C@H](O)[C@H]3O[C@@H]3O[C@@H](C)[C@H](O)[C@@H](O)[C@H]3O)C[C@]12C,99,,,95.5
CC(C)=CCC[C@](C)(O[C@@H]1O[C@H](CO[C@@H]2OC[C@H](O)[C@H](O)[C@H]2O)[C@@H](O)[C@H](O)[C@H]1O)[C@H]1CC[C@]2(C)[C@@H]1[C@H](O)C[C@@H]1[C@@]3(C)CC[C@H](O)C(C)(C)[C@@H]3[C@@H](O)C[C@]12C [GINSENOSIDE F3],104,,,93.6
